Here are results for 17 compounds from US20220324800A1 (priority 2021, published 2022).

As a reminder, the IC50 is the concentration that gives 50% inhibition. The low end stands for greater potency in that assay, the high end for weaker potency in that assay.

Molecules are shown by their SMILES. A value given as a limit tells only on which side of the number the result lay.

This assay addresses 3CLpro (Severe acute respiratory syndrome coronavirus 2, UniProt P0DTD1). The assay is described as follows: biochemical. On the set-up: species or system SARS-CoV-2.
As for `COc1cccc2[nH]c(C(=O)N[C@@H](CC(C)C)C(=O)CN(C[C@@H]3CCNC3=O)C(=O)CF)cc12` [Example 8, N—((S)-1-(2-Fluoro-N—(((S)-2-oxopyrrolidin-3-yl)methyl)acetamido)-5-methyl-2-oxohexan-3-yl)-4-methoxy-1H-indole-2-carboxamide], the IC50 was above 20000 nM.
On to `CC(C)C[C@H](NC(=O)c1cc2ccccc2o1)C(=O)CN(C[C@@H]1CCNC1=O)C(=O)CCl` [Example 14, N—((S)-1-(2-Chloro-N—(((S)-2-oxopyrrolidin-3-yl)methyl)acetamido)-5-methyl-2-oxohexan-3-yl)benzofuran-2-carboxamide], for which the IC50 is below 2000 nM.
The compound `C=CC(=O)N(CC(=O)[C@H](CC(C)C)NC(=O)c1cc2c(OC)cccc2[nH]1)C[C@@H]1CCNC1=O` [Example 4, 4-Methoxy-N—((S)-5-methyl-2-oxo-1-(N—(((S)-2-oxopyrrolidin-3-yl)methyl)acrylamido)hexan-3-yl)-1H-indole-2-carboxamide] came in with an IC50 above 20000 nM.
The compound `CC(C)C[C@H](NC(=O)OC(C)(C)C)C(=O)CN(C[C@@H]1CCNC1=O)C(=O)SCc1ccccc1` [Example 16, Tert-butyl ((S)-1-(((benzylthio)carbonyl)(((S)-2-oxopyrrolidin-3-yl)methyl)amino)-5-methyl-2-oxohexan-3-yl)carbamate] showed an IC50 above 20000 nM.
`CC(C)C[C@H](NC(=O)c1cc2c(F)cccc2s1)C(=O)CN(C[C@@H]1CCNC1=O)C(=O)CCl` [Example 12, N—((S)-1-(2-Chloro-N—(((S)-2-oxopyrrolidin-3-yl)methyl)acetamido)-5-methyl-2-oxohexan-3-yl)-4-fluorobenzo[b]thiophene-2-carboxamide] registered a half-maximal inhibitory concentration (IC50) below 2000 nM.
Consider `CC(C)C[C@H](NC(=O)OC(C)(C)C)C(=O)CN(C[C@@H]1CCNC1=O)C(=O)CCl` [Example 1, Tert-butyl ((S)-1-(2-chloro-N—(((S)-2-oxopyrrolidin-3-yl)methyl)acetamido)-5-methyl-2-oxohexan-3-yl)carbamate], for which the IC50 was below 2000 nM.
In turn, `COc1cccc2[nH]c(C(=O)N[C@@H](CC(C)C)C(=O)CN(C[C@@H]3CCNC3=O)C(=O)SCc3ccccc3)cc12` [Example 18, S-Benzyl ((S)-3-(4-methoxy-1H-indole-2-carboxamido)-5-methyl-2-oxohexyl)(((S)-2-oxopyrrolidin-3-yl)methyl)carbamothioate] gave an IC50 above 20000 nM.
The result for `CC(C)C[C@H](NC(=O)c1cc2c(F)cccc2o1)C(=O)CN(C[C@@H]1CCNC1=O)C(=O)CCl` [Example 15, N—((S)-1-(2-Chloro-N—(((S)-2-oxopyrrolidin-3-yl)methyl)acetamido)-5-methyl-2-oxohexan-3-yl)-4-fluorobenzofuran-2-carboxamide] reads below 2000 nM; that for `C=CC(=O)N(CC(=O)[C@H](CC(C)C)NC(=O)OC(C)(C)C)C[C@@H]1CCNC1=O` [Example 3, Tert-butyl ((S)-5-methyl-2-oxo-1-(N—(((S)-2-oxopyrrolidin-3-yl)methyl)acrylamido)hexan-3-yl)carbamate], above 20000 nM; that for `CC(=O)OCC(=O)N(CC(=O)[C@H](CC(C)C)NC(=O)OC(C)(C)C)C[C@@H]1CCNC1=O` [Example 17, 2-(((S)-3-((Tert-butoxycarbonyl)amino)-5-methyl-2-oxohexyl)(((S)-2-oxopyrrolidin-3-yl)methyl)amino)-2-oxoethyl acetate], above 20000 nM.
For `CC(C)C[C@H](NC(=O)OCc1ccccc1)C(=O)CN(C[C@@H]1CCNC1=O)C(=O)CCl` [Example 20, Benzyl ((S)-1-(2-chloro-N—(((S)-2-oxopyrrolidin-3-yl)methyl)acetamido)-5-methyl-2-oxohexan-3-yl)carbamate], the IC50 is below 2000 nM.
`COc1cccc2[nH]c(C(=O)N[C@@H](CC(C)C)C(=O)CN(C[C@@H]3CCNC3=O)S(=O)(=O)CCl)cc12` [Example 10, N—((S)-1-((1-Chloro-N—(((S)-2-oxopyrrolidin-3-yl)methyl)methyl)sulfonamido)-5-methyl-2-oxohexan-3-yl)-4-methoxy-1H-indole-2-carboxamide] showed an IC50 above 20000 nM.
In turn, `CC(C)C[C@@H](NC(=O)OCc1ccccc1)C(=O)CN(C[C@@H]1CCNC1=O)C(=O)CCl` [Example 21, Benzyl ((R)-1-(2-chloro-N—(((S)-2-oxopyrrolidin-3-yl)methyl)acetamido)-5-methyl-2-oxohexan-3-yl)carbamate] returned an IC50 of 2000 to 20000 nM.
Turning to `COc1cccc2[nH]c(C(=O)N[C@@H](CC(C)C)C(=O)CN(C[C@@H]3CCNC3=O)C(=O)CCl)cc12` [Example 2, N—((S)-1-(2-Chloro-N—(((S)-2-oxopyrrolidin-3-yl)methyl)acetamido)-5-methyl-2-oxohexan-3-yl)-4-methoxy-1H-indole-2-carboxamide], the IC50 was below 2000 nM.
For `C#CC(=O)N(CC(=O)[C@H](CC(C)C)NC(=O)c1cc2c(OC)cccc2[nH]1)C[C@@H]1CCNC1=O` [Example 6, 4-Methoxy-N—((S)-5-methyl-2-oxo-1-(N—(((S)-2-oxopyrrolidin-3-yl)methyl)propiolamido)hexan-3-yl)-1H-indole-2-carboxamide], the IC50 lay in the range of 2000 to 20000 nM.
The result for `CC(C)C[C@H](NC(=O)c1cccs1)C(=O)CN(C[C@@H]1CCNC1=O)C(=O)CCl` [Example 13, N—((S)-1-(2-Chloro-N—(((S)-2-oxopyrrolidin-3-yl)methyl)acetamido)-5-methyl-2-oxohexan-3-yl)thiophene-2-carboxamide] reads below 2000 nM; that for `CC(C)C[C@H](NC(=O)c1cc(Cl)c(Cl)s1)C(=O)CN(C[C@@H]1CCNC1=O)C(=O)CCl` [Example 11, 4,5-Dichloro-N—((S)-1-(2-chloro-N—(((S)-2-oxopyrrolidin-3-yl)methyl)acetamido)-5-methyl-2-oxohexan-3-yl)thiophene-2-carboxamide], below 2000 nM.
